Results taken from ChEMBL document CHEMBL3507680, “University of Dundee, Gates Library screen for HepG2 cell viability”.

Assay: Human HepG2 cell viability assay in 384 well format
Format: toxicity, cell-based
Parameters: dose 125 nL, time 70.5 hour; cytotoxicity at 70.5 h: concentration not given beside the values
Conditions: HepG2 cells, read-out: Inhibition

| SMILES | cytotoxicity at 70.5 h |
| --- | --- |
| Cc1nc(CNC(=O)c2ccc3c(c2)nc(N2CCOCC2)n3C)cs1 | -5.03% |
| O=C(c1ccsc1)N1CCc2onc(COc3ccccn3)c2C1 | -1.49% |
| CC(=O)NCCNCc1cn(CCN2CCSCC2)nc1C | -5.7% |
| COc1cccc(CSCC(=O)NCc2cccnc2)c1 | -3.51% |
| NC(=O)CN1CCCN(C(=O)Cc2ccc3c(c2)OCO3)CC1 | -2.14% |
| CCC(C)NC(=O)NCCCn1nc2ccccn2c1=O (stereo unspecified) | -9.52% |
| N#Cc1csc(CNCCOc2ccc(Cl)cn2)c1 | -5.85% |
| Cc1nc(N)ncc1C(=O)N1CCCC(CCc2ccc(F)c(F)c2)C1 (stereo unspecified) | -16.6% |
| CCn1cc(N)c(-c2nnc3n2CCCC3)n1 | -2.65% |
| Cc1cc(C)n(C2CN(CC(O)Cn3cccn3)C2)n1 (stereo unspecified) | 7.73% |
| Cc1csc(CN2CC[C@H]3C[C@H](C)O[C@@H]3C2)n1 | -10.4% |
| Cc1nc(CN2CCOC(CN(C)c3cccnn3)C2)cs1 (stereo unspecified) | -12.9% |
| CC(c1ccncn1)N(C)S(=O)(=O)NCc1ccccc1 (stereo unspecified) | 47.6% |
| Cc1cc2cccc(NC(=O)N3CCC(N(C)C)C3)c2o1 (stereo unspecified) | -8.17% |
| CN(Cc1cnn(-c2ccccc2)n1)C1CCCN(c2cccnn2)C1 (stereo unspecified) | -12.2% |
| CC(C)c1noc(C(C)N2CCN(Cc3nc4ccccc4[nH]3)CC2)n1 (stereo unspecified) | -8.5% |
| O=C(Nc1cnc2n1CCCC2)c1cccc(-n2cnnc2)c1 | -16.8% |
| Cn1nccc1NC(=O)Cn1ccc(-c2ccc3c(c2)OCO3)n1 | -22.6% |
| CSCCCN1C[C@H](NC(=O)c2cnn(C)c2)[C@@H](C2CC2)C1 | -7.31% |
| CCC(=O)N1CCN(c2ncnc3cc4c(cc23)OCCO4)CC1 | -4.42% |
| CC(=O)c1cc(CN2C[C@H]3CC[C@@H]2CN(Cc2c(C)noc2C)C3)cs1 | -8.51% |

| SMILES | cytotoxicity at 70.5 h |
| --- | --- |
| CNC(=O)[C@@H]1C[C@@H](NC(=O)c2cn(C)nc2C)CN1Cc1sccc1C | -2.42% |
| COc1cc(CNCc2ccc(C(C)O)cc2)cc2c1OCO2 (stereo unspecified) | 44.3% |
| COC(C)(CNS(=O)(=O)c1cnn(C)c1)c1ccccc1F (stereo unspecified) | -0.155% |
| O=C(NCC1CC1)Nc1ccc(OCC(F)(F)F)nc1 | -9.95% |
| CCCn1cc(S(=O)(=O)N[C@H]2CN(C(C)=O)C[C@@H]2C2CC2)cn1 | -1.84% |
| COCCC(=O)N1CCCC(c2n[nH]cc2C)C1 (stereo unspecified) | 15.1% |
| Cc1nc(N2CCCC2)nc2c1CN(C(=O)c1ccco1)CC2 | -4.28% |
| CCN1CC2(CC1=O)CN(C(=O)c1cccs1)CCN(C(=O)N(C)C)C2 (stereo unspecified) | -1.77% |
| NC(=O)c1ccccc1Oc1cnc(C2CCCN2)cn1 (stereo unspecified) | -7.87% |
| CC(C)Cc1ncc2c(n1)CN(c1cc(N)nc(N)n1)C2 | -1.3% |
| O=C(c1ccc(F)cc1)N1CCC2(CCN(Cc3ccccn3)C2=O)C1 (stereo unspecified) | -5.2% |
| Cc1nc2[nH]cnc(Nc3cc(C)n(C)n3)c-2n1 | -1.58% |
| CN(C)[C@@H]1CN(Cc2cnn(C)c2)[C@@H]2COC[C@H]12 | 7.8% |
| O=C(NCc1ccccc1CN1CCC(O)CC1)Nc1ccccn1 | -3.22% |
| COc1ccc(Cl)cc1C(=O)NCC1CCN(C(=O)c2ccoc2)CC1 | -15.3% |
| Cn1cc(CN2CCC(F)(F)C3(CCN(c4ccccn4)C3)C2)cn1 (stereo unspecified) | -14.4% |
| CC(C)(O)CCc1cccc(C(=O)N2Cc3cnn(CCO)c3C2)c1 | -17.1% |
| Cc1[nH]c2ccc(CNC3CCN(Cc4ccccn4)CC3)cc2c1C | 3.44% |
| CCOC(=O)Cc1csc(NC(=O)c2cc3n(n2)CCCO3)n1 | -2.3% |
| CC(=O)c1cc(C(=O)N2CCN(C)Cc3ccccc32)n(C)c1 | -3% |
| CC[C@@H](Cn1ncc2ccccc2c1=O)NC(=O)c1ccco1 | -8.28% |

| SMILES | cytotoxicity at 70.5 h |
| --- | --- |
| Cc1occc1C(=O)N1CCC2(CC1)NC(=O)CC2c1cnn(C)c1 (stereo unspecified) | -10.3% |
| CN1CCCC(Cc2cncc(C(=O)NCC3CC3)c2)C1 (stereo unspecified) | -1.13% |
| CC(C)[C@H]1CN(S(C)(=O)=O)C[C@@H]1NC(=O)c1ccnc(N)c1 | -1.08% |
| CS(=O)(=O)N1CCOC2(CCCN(c3cnccn3)C2)C1 (stereo unspecified) | -6.97% |
| COc1cccc2c1ccn2CCNC(=O)CC(C)C | -15.1% |
| O=S(=O)(CCc1ccccc1)Nc1cc(Cl)ccn1 | 0.152% |
| Cc1ccccc1Cn1cnc2oc(C)c(C(=O)O)c2c1=O | -11.3% |
| CN1C(=O)[C@H]2CC[C@@H]1CN(Cc1cccc(OCc3ccccn3)c1)C2 | -11.5% |
| COCCCNc1cc(C)nn2cnnc12 | -4.69% |
| CCc1nc(CN2CCCN(C(=O)COCC3CC3)CC2)cs1 | -12.1% |
| CCN(CC(=O)NC(C)C)C(=O)C(C)(C)c1ccc2c(c1)OCCO2 | -8.1% |
| CN1CC(=O)N(c2cnn(C)c2)CC12CCN(Cc1cccs1)C2 (stereo unspecified) | -1.01% |
| CC(C)N(C)CC(=O)N(C)Cc1nc(C(F)(F)F)cs1 | 2.33% |
| Cc1ccsc1CN1CCC(c2nnc(Cn3cccn3)n2C)CC1 | -2.95% |
| COc1cc(-c2n[nH]c(CO)n2)cc(OC)c1OC | 29.6% |
| Cc1ccc(CN(CCN(C)C)C(=O)Nc2ccc(C)c(C#N)c2)s1 | 1.83% |
| Cc1ccccc1[C@@H]1CN(Cc2ccc(C(F)(F)F)nc2)C[C@H]1C(=O)O | -4.46% |
| COc1ccc2c(c1)C(=O)N(C)C1(CCN(C(=O)OC(C)(C)C)CC1)N2 | 1.71% |
| COCC(C)NC(=O)CN1CCC2(CC1)OCCO2 (stereo unspecified) | -3.81% |
| CCC1CN(C)c2ccccc2CN1C(=O)Nc1ccccc1OC (stereo unspecified) | 16.8% |
| Cc1cc(NC(=O)CCN2CCn3c(C)nnc3C2)no1 | -8.82% |

| SMILES | cytotoxicity at 70.5 h |
| --- | --- |
| CCN(CC(=O)NC)C(=O)c1cc(-c2cccc(Cl)c2)no1 | -2.85% |
| CC(C)(C)CC(=O)N1CC[C@H]2CC(=O)N(CCc3c[nH]cn3)CC[C@H]2C1 | -4.11% |
| CO[C@@H]1CCN(S(=O)(=O)c2cn(C)cn2)[C@H]1Cc1cnn(C)c1 | -0.546% |
| O=C(c1cscn1)N1CCC2(CC1)CCN(S(=O)(=O)c1ccccc1)C2 | -8.17% |
| CCc1cc(C(F)(F)F)c2c(C3CCCN(C(=O)COC)C3)noc2n1 (stereo unspecified) | -4.44% |
| CCC1CN(C(=O)c2ccccc2C#N)CCN1C(C)C (stereo unspecified) | 14.9% |
| CC(NC(=O)CCC(=O)c1cccs1)c1nnc2n1CCC2 (stereo unspecified) | -3.09% |
| CNc1nc(CNC(=O)Nc2cccc(F)c2C)cs1 | -7.06% |
| CCn1cnnc1CNC(=O)N(C)Cc1cccc(Cl)c1Cl | -6.25% |
| Cc1ncc2c(n1)CCN(C(=O)Cc1c(C)noc1C)C2 | 22.9% |
| CN1N=C(C(=O)Nc2cc(F)ccc2OCC2CCCO2)CCC1=O (stereo unspecified) | -20.2% |
| CC(C)NC(=O)N1CCc2c(CNc3ncccn3)cncc2C1 | -3.35% |
| Cn1cc(C(=O)NCc2cn3c(n2)CN(CC2CCCC2)CC3)cn1 | -112% |
| CNC(=O)c1csc(-c2ccoc2)n1 | -4.01% |
| Cc1cccc(NC(=O)N2CCCn3cnc(CN4CCCC4)c3C2)c1 | -1.43% |
| NC(=O)CN(CC(N)=O)Cc1cccc(Oc2ccccc2)c1 | 7.82% |
| CC(C)CNC(=O)CNC(=O)NC(C)COc1ccccc1F (stereo unspecified) | -13.5% |
| O=S1(=O)CCC(N2CCN(c3cc(C(F)(F)F)ccn3)CC2)C1 (stereo unspecified) | 1.03% |
